Experiments:
protein sample [1] = assay: Protein quality control screen: melting point temperature vs pH and NaCl concentration; format: physicochemical
Text: In one embodiment, the present invention contemplates a method comprising a protein quality control screen. Although it is not necessary to understand the mechanism of an invention, it is believed that a quality control screen may be used to analyze: i) comparison of protein state prior to storage and post storage; ii) protein synthesis/purification lot-to-lot comparison; and iii) protein synthesis/purification batch testing. In one embodiment, the protein quality control screen measures protein melting point temperature while varying both pH concentration and ionic strength (e.g., for example, using a sodium chloride dose response curve). See, Table 1.
In one embodiment, a three dimensional map of the protein melting point temperatures is created by plotting the melting point determinations relative to pH and ionic strength. See. FIG. 15.

protein sample [2] = assay: Protein stability screen: protein melting point temperature in MES/BTP buffer mixture; format: physicochemical; details: Hoefmeister Series screen; higher Tm
Text: In one embodiment, the present invention contemplates a method comprising a physiologic buffer mixture having a temperature-stable pKa to identify test compounds that increase stability of a sample protein by performing a protein melting point temperature screen. […] Although it is not necessary to understand the mechanism of an invention it is believed that a protein stability screen acts to define the bulk properties of a solution system (i.e. impact of pH, ionic strength, buffer etc.) and not just one specific component like most of the other screening conditions. The buffer system also acts as an internal control that simultaneously compares new and old conditions under identical conditions. Although commonly used previously, a urea stability test provides validation and verification of all testing parameters by comparative analysis with historical literature. DMSO screening allows for the nomination of conditions where protein compounds are usually insoluble (e.g., for example, drug binding studies) to identify the proper use of DMSO to solubilize these compounds without effecting the performance of the intended assay.
See, FIG. 1. […] See, FIG. 3. […] See, FIG. 4. […] See, FIG. 5. […] See, FIG. 6.
A metal ion screen was performed that compared the relative effects of five (5) different metal chloride ions, each at two different concentrations. See, FIG. 7. […] See, FIG. 8.
In one embodiment, the kit instructions comprise the following steps: • i) pre-chill the RT-PCR plate at 4° C. for 15-30 minutes prior to the addition of reagents and/or protein sample to each of the wells. • ii) The dye vial and kit plates should be stored at −20° C. and away from light until the time of use. • iii) Add 5 μl of dye to 500 μl of protein sample. The dye to protein ratio can be modified to any particular protein. For example, smaller proteins or proteins with a small hydrophobic core may require an increased dye concentration. • iv) Transfer 5 μl of each solution from the well plate to a corresponding well of the RT-PCR plate. • v) Add 5 μl of the protein/dye mixture to each well of the RT-PCR plate (>0.5 mg/ml). • vi) Mix the solutions by pipetting up and down (˜5 times). • a) gently placing all solutions at the bottom of the avoids subsequent plate centrifugation. • vii) Seal the RT-PCR plate. • viii) Immediately load the TR-PCR plate into the instrument and begin the programmed heating schedule (approximate timeframe=62 minutes), for example: • a) Heat to 20 C • b) Ramp to 90 C in 0.5 C increments. • c) Ramp to 4 C with a two minute schedule. • ix) Upload stored data file to a designated website (e.g., for example, caymanchem.com/deltatm) and follow the instructions.

[Cl-].[Na+] [sodium chloride]
protein melting point temperature (protein sample [1]; pH 5, NaCl Concentration 0.125): 73 °C | protein melting point temperature (protein sample [1]; pH 5, NaCl Concentration 0.25): 73.5 °C | protein melting point temperature (protein sample [1]; pH 5, NaCl Concentration 0.5): 74.5 °C | protein melting point temperature (protein sample [1]; pH 5, NaCl Concentration 0.75): 76 °C | protein melting point temperature (protein sample [1]; pH 5, NaCl Concentration 1): 76.5 °C | protein melting point temperature (protein sample [1]; pH 5, NaCl Concentration 1.25): 77 °C | protein melting point temperature (protein sample [1]; pH 5, NaCl Concentration 1.5): 77 °C | protein melting point temperature (protein sample [1]; pH 5, NaCl Concentration 1.75): 76.5 °C | protein melting point temperature (protein sample [1]; pH 5, NaCl Concentration 2): 77 °C | protein melting point temperature (protein sample [1]; pH 5.5, NaCl Concentration 0.125): 75 °C | protein melting point temperature (protein sample [1]; pH 5.5, NaCl Concentration 0.25): 75 °C | protein melting point temperature (protein sample [1]; pH 5.5, NaCl Concentration 0.5): 75 °C | protein melting point temperature (protein sample [1]; pH 5.5, NaCl Concentration 0.75): 76 °C | protein melting point temperature (protein sample [1]; pH 5.5, NaCl Concentration 1): 76.5 °C | protein melting point temperature (protein sample [1]; pH 5.5, NaCl Concentration 1.25): 77 °C | protein melting point temperature (protein sample [1]; pH 5.5, NaCl Concentration 1.5): 77 °C | protein melting point temperature (protein sample [1]; pH 5.5, NaCl Concentration 1.75): 77.5 °C | protein melting point temperature (protein sample [1]; pH 5.5, NaCl Concentration 2): 77.5 °C | protein melting point temperature (protein sample [1]; pH 6, NaCl Concentration 0.125): 75 °C | protein melting point temperature (protein sample [1]; pH 6, NaCl Concentration 0.25): 76 °C | protein melting point temperature (protein sample [1]; pH 6, NaCl Concentration 0.5): 76 °C | protein melting point temperature (protein sample [1]; pH 6, NaCl Concentration 0.75): 76.5 °C | protein melting point temperature (protein sample [1]; pH 6, NaCl Concentration 1): 77 °C | protein melting point temperature (protein sample [1]; pH 6, NaCl Concentration 1.25): 77 °C | protein melting point temperature (protein sample [1]; pH 6, NaCl Concentration 1.5): 77 °C | protein melting point temperature (protein sample [1]; pH 6, NaCl Concentration 1.75): 78 °C | protein melting point temperature (protein sample [1]; pH 6, NaCl Concentration 2): 77.5 °C | protein melting point temperature (protein sample [1]; pH 6.5, NaCl Concentration 0.125): 76 °C | protein melting point temperature (protein sample [1]; pH 6.5, NaCl Concentration 0.25): 76.5 °C | protein melting point temperature (protein sample [1]; pH 6.5, NaCl Concentration 0.5): 76.5 °C | protein melting point temperature (protein sample [1]; pH 6.5, NaCl Concentration 0.75): 77 °C | protein melting point temperature (protein sample [1]; pH 6.5, NaCl Concentration 1): 77.5 °C | protein melting point temperature (protein sample [1]; pH 6.5, NaCl Concentration 1.25): 77.5 °C | protein melting point temperature (protein sample [1]; pH 6.5, NaCl Concentration 1.5): 77.5 °C | protein melting point temperature (protein sample [1]; pH 6.5, NaCl Concentration 1.75): 78 °C | protein melting point temperature (protein sample [1]; pH 6.5, NaCl Concentration 2): 78 °C | protein melting point temperature (protein sample [1]; pH 7, NaCl Concentration 0.125): 76 °C | protein melting point temperature (protein sample [1]; pH 7, NaCl Concentration 0.25): 76.5 °C | protein melting point temperature (protein sample [1]; pH 7, NaCl Concentration 0.5): 77 °C | protein melting point temperature (protein sample [1]; pH 7, NaCl Concentration 0.75): 77.5 °C | protein melting point temperature (protein sample [1]; pH 7, NaCl Concentration 1): 77.5 °C | protein melting point temperature (protein sample [1]; pH 7, NaCl Concentration 1.25): 77.5 °C | protein melting point temperature (protein sample [1]; pH 7, NaCl Concentration 1.5): 77.5 °C | protein melting point temperature (protein sample [1]; pH 7, NaCl Concentration 1.75): 77 °C | protein melting point temperature (protein sample [1]; pH 7, NaCl Concentration 2): 77 °C | protein melting point temperature (protein sample [1]; pH 7.5, NaCl Concentration 0.125): 76.5 °C | protein melting point temperature (protein sample [1]; pH 7.5, NaCl Concentration 0.25): 77.5 °C | protein melting point temperature (protein sample [1]; pH 7.5, NaCl Concentration 0.5): 77.5 °C | protein melting point temperature (protein sample [1]; pH 7.5, NaCl Concentration 0.75): 78 °C | protein melting point temperature (protein sample [1]; pH 7.5, NaCl Concentration 1): 77.5 °C | protein melting point temperature (protein sample [1]; pH 7.5, NaCl Concentration 1.25): 76.5 °C | protein melting point temperature (protein sample [1]; pH 7.5, NaCl Concentration 1.5): 76 °C | protein melting point temperature (protein sample [1]; pH 7.5, NaCl Concentration 1.75): 76 °C | protein melting point temperature (protein sample [1]; pH 7.5, NaCl Concentration 2): 75 °C | protein melting point temperature (protein sample [1]; pH 8, NaCl Concentration 0.125): 75.5 °C | protein melting point temperature (protein sample [1]; pH 8, NaCl Concentration 0.25): 77.5 °C | protein melting point temperature (protein sample [1]; pH 8, NaCl Concentration 0.5): 76.5 °C | protein melting point temperature (protein sample [1]; pH 8, NaCl Concentration 0.75): 77.5 °C | protein melting point temperature (protein sample [1]; pH 8, NaCl Concentration 1): 76.5 °C | protein melting point temperature (protein sample [1]; pH 8, NaCl Concentration 1.25): 76.5 °C | protein melting point temperature (protein sample [1]; pH 8, NaCl Concentration 1.5): 76 °C | protein melting point temperature (protein sample [1]; pH 8, NaCl Concentration 1.75): 75 °C | protein melting point temperature (protein sample [1]; pH 8, NaCl Concentration 2): 74.5 °C | protein melting point temperature (protein sample [1]; pH 8.5, NaCl Concentration 0.125): 75 °C | protein melting point temperature (protein sample [1]; pH 8.5, NaCl Concentration 0.25): 75.5 °C | protein melting point temperature (protein sample [1]; pH 8.5, NaCl Concentration 0.5): 76 °C | protein melting point temperature (protein sample [1]; pH 8.5, NaCl Concentration 0.75): 77 °C | protein melting point temperature (protein sample [1]; pH 8.5, NaCl Concentration 1): 76 °C | protein melting point temperature (protein sample [1]; pH 8.5, NaCl Concentration 1.25): 75 °C | protein melting point temperature (protein sample [1]; pH 8.5, NaCl Concentration 1.5): 75 °C | protein melting point temperature (protein sample [1]; pH 8.5, NaCl Concentration 1.75): 75 °C | protein melting point temperature (protein sample [1]; pH 8.5, NaCl Concentration 2): 74.5 °C | protein melting point temperature (protein sample [1]; pH 9, NaCl Concentration 0.125): 75 °C | protein melting point temperature (protein sample [1]; pH 9, NaCl Concentration 0.25): 75 °C | protein melting point temperature (protein sample [1]; pH 9, NaCl Concentration 0.5): 75.5 °C | protein melting point temperature (protein sample [1]; pH 9, NaCl Concentration 0.75): 75 °C | protein melting point temperature (protein sample [1]; pH 9, NaCl Concentration 1): 75 °C | protein melting point temperature (protein sample [1]; pH 9, NaCl Concentration 1.25): 75 °C | protein melting point temperature (protein sample [1]; pH 9, NaCl Concentration 1.5): 75 °C | protein melting point temperature (protein sample [1]; pH 9, NaCl Concentration 1.75): 74.5 °C | protein melting point temperature (protein sample [1]; pH 9, NaCl Concentration 2): 74 °C | effect on protein stability (Tm) (protein sample [2]): improved the stability of the protein
